One experiment deals with human TET2 construct (Homo sapiens, UniProt Q6N021, A1837G/A1840G/D1704G/D1842G/DEL1471-1702/DEL1708-1833/E1841G/F1706G/N1843S/Q1834G/V1836G). Nature of the experiment: Determination of TET2 binding by Surface Plasmon Resonance. As to conditions: SPR, Biacore T200, 25° C., steady state fit to single site interaction model. As to the method:
The human methylcytosine dioxygenase TET2 construct used (1129-2002 with residues 1471-1843 replaced by a 15-residue GS-linker) was expressed in a pET-28a(+)psumo vector with kanamycin resistance and an N-terminal His6 tag, and cloned in Rosetta D3 Escherichia coli competent cells. Transformed cells were cultured overnight in 10 mL of LB media supplied with kanamycin (50 μg/mL), then scaled to 1 L LB medium supplied with kanamycin (50 μg/mL) and grown at 37° C. Once the optical density (OD600) achieved 0.8, protein expression was induced with 0.4 mM isopropyl-β-thiogalactopyranoside (IPTG) overnight at 18° C. Cells were harvested by centrifugation (8,000 rpm, 4° C., 30 min) and the pellet obtained was resuspended in 15 mL of buffer A (50 mM Hepes, 150 mM NaCl, 30 mM imidazole, 2 mM β-mercaptoethanol (pH 8.0) supplemented with Pierce protease inhibitor cocktail (ThermoFisher Scientific)) and lysed by sonication (1 min 40 s: 10 cycles×10 s ON, 30 s OFF, A=35%, T=19° C.) followed by two consecutive centrifugations (8,000 rpm, 4° C., 30 min) to clarify the lysate.
The TET2 protein was purified using an AKTA Start system (GE Healthcare, Uppsala, Sweden) by two-step purification procedure: one His-affinity chromatography followed by a size exclusion chromatography. First, the protein fraction obtained during the lysis (supernatant) was applied to a 5 mL HisTrap HP column (GE Healthcare), washed with buffer A (50 mM Hepes, 150 mM NaCl, 30 mM imidazole, 2 mM […] (pH 8.0)) and the bound protein was eluted with buffer B (50 mM Hepes, 150 mM NaCl, 250 mM imidazole, 2 mM β-mercaptoethanol (pH 8.0)). The eluted protein-containing fractions were pooled and concentrated up to 4 mL for the last purification step: a size exclusion chromatography (HiPrep 16/60 Sephacryl S-100 HR) in 50 mM Hepes, 150 mM NaCl, 2 mM β-mercaptoethanol (pH 8.0). Finally, the mass and purity of the protein were verified by SDS-electrophoresis and mass spectrometry.
The binding of compounds of the examples was determined by Surface Plasmon Resonance (SPR) using a Biacore T200 SPR biosensor instrument (GE Healthcare, Uppsala, Sweden) at 25° C. The human TET2 construct was immobilized on a CM5 sensor chip using a standard covalent immobilization via amine coupling following the activation of the carboxymethyl dextran matrix of the sensor chip (injection of a solution containing 0.1 M N-hydroxysuccinimide and 0.4 M 1-ethyl-3-[3-(dimethylamino)propyl]carbodiimide hydrochloride at a flow rate of 15 μL/min for 7 min). The protein immobilization was achieved after the injection of 5 μg/mL TET2 in 10 mM sodium acetate (pH 4.0) at a flow rate of 5 μL/min. Unreacted activated groups of the dextran matrix were deactivated by injection of 1 M ethanolamine hydrochloride for 7 min at a flow rate of 15 μL/min. The corresponding matrix activation and protein immobilization were performed using as a running buffer a phosphate buffered saline solution (1.05× PBS: 10 mM phosphate, pH 7.4, 150 mM NaCl). The screened compounds were prepared in a 20 mM stock solution in DMSO and diluted with 1.05× PBS to achieve a final 5% (v/v) DMSO concentration. The running buffer of the interaction assays consisted of 1×PBS, 5% (v/v) DMSO. The flow rate used for the screening was 60 μL/min and the ligand association and dissociation times set were 60 s and 120 s, respectively.
For data analysis the software used was the Biacore T200 Evaluation software. Different corrections were applied. First, the nonspecific binding to the chip surface and the baseline drift were corrected subtracting the signals of a reference surface (where the immobilization procedure was carried out without proteins) to the signals obtained on the TET2 surface. Second, a series of solvent standards (solvent correction) were introduced to remove the differences derived from the DMSO. Finally, the background was corrected subtracting blank injections (blank subtraction) to the injected compound signals.

Another experiment deals with HL60 cell line. The experiment in a line: Antiproliferative activity on HL60 cell line (CellTiter-Glo). The class given is cell-based. As to conditions: Homo sapiens, HL-60; HL60, 72 h of treatment. As to the method: The human leukaemic cell line HL60 was grown in suspension in RPMI 1640 medium containing 10% (v/v) FBS and 1% (v/v) P/S (Life Technologies). […] Leukaemia cells were suspended at a density of 2×10^5 cells/mL in complete RPMI 1640 medium and 25 μL were seeded in each well (5×10^3 final total cells/well). A 10 μM solution of the compounds of examples 1, 12 and 21, and a 25 μM solution of all other compounds were prepared in complete medium, and then serially diluted (1:2) (as specified in Table 3 below). A solution of complete medium with DMSO was used as a vehicle control.
Twenty-five microliters of each serially diluted compound solution were added to the corresponding wells of the plate (50 μL of final volume/well). After 48 h of treatment, 50 μL of fresh 2X serially diluted compound solution was added to their corresponding wells (100 μL of final volume/well). After twenty-four additional hours, an equal volume (100 μL) of CellTiter-Glo Reagent (Promega) was added to each well, plates were shaken during 2 min and incubated at rt for 10 min. Luminescence was recorded using a Spark multimode microplate reader and an integration time of 1 s per well.

Another experiment relates to MCF7 (breast). Nature of the experiment: Antiproliferative activity on other tumour cell lines (CellTiter-Glo): MCF7. The settings on record: Homo sapiens; MCF7, 72 h of treatment. The class given is cell-based. As to the method: (§1) Other human adherent cancer cell lines were cultured in their corresponding cell medium (as specified in Table 4) supplemented with 10% FBS (v/v) and 1% P/S (v/v). Twenty-four hours prior to treatment with the compounds to be tested (Examples 1, 12 and 21), the cells were seeded in 96-well plates at different densities depending of the cell line (as specified in Table 4).
(§2) Depending on the cell line, a 50, 125 or 250 μM solution of the compounds of examples 1, 12 and 21 were prepared in complete medium, and then serially diluted (1:2) (Table 5). A solution of complete medium with DMSO was used as a vehicle control.
(§3) Fifty microliters of each serially diluted compound solution was added by medium replacement in two wells (by duplicate). After 48 h of treatment, 50 μL of fresh 2X serially diluted compound solution was added to the corresponding wells of the plate (100 μL of final volume/well). After twenty-four additional hours (a total of 72 h of treatment), an equal volume (100 μL) of CellTiter-Glo Reagent (Promega) was added to each well, plates were shaken during 2 min and incubated at rt for 10 min. Luminescence was recorded using a Spark multimode microplate reader and an integration time of 1 s per well.

The next experiment concerns HCT116 (colon). Nature of the experiment: Antiproliferative activity on other tumour cell lines (CellTiter-Glo): HCT116. The class given is cell-based. As to conditions: Homo sapiens; HCT 116, 72 h of treatment. As to the method: as §1, §2, §3
For the next experiment, the system named is MDA-MB-468 (breast). Nature of the experiment: Antiproliferative activity on other tumour cell lines (CellTiter-Glo): MDA-MB-468. Format: cell-based. As to conditions: Homo sapiens, MD-MB-468, 72 h of treatment. As to the method:
as §1, §2, §3

`Cc1[nH]c2ccccc2c1-c1nc(NC(=O)Cc2cn3ccsc3n2)sc1C` [Example 4, 2-(imidazo[2,1-b]thiazol-6-yl)-N-[5-methyl-4-(2-methyl-1H-indol-3-yl)thiazol-2-yl]acetamide] gave a Kd on human TET2 construct of 12 µM. The compound further yielded an EC50 in the experiment with HL60 cell line of 2.3 µM.

As for `Cc1[nH]c2ccccc2c1-c1csc(NC(=O)Cc2c[nH]c3ccc(F)cc23)n1` [Example 12, 2-(5-fluoro-1H-indol-3-yl)-N-[4-(2-methyl-1H-indol-3-yl)thiazol-2-yl]acetamide], the Kd on human TET2 construct was 6 µM. For the same compound, the half-maximal effective concentration (EC50) amounted to 10.3 µM in the experiment on MCF7 (breast), 6.8 µM with HCT116 (colon), 10.1 µM in the experiment on MDA-MB-468 (breast) and 0.497 µM in the experiment on HL60 cell line.

Regarding `Cc1[nH]c2ccccc2c1-c1csc(NC(=O)Cc2c[nH]c3ccccc23)n1` [Example 13, 2-(1H-indol-3-yl)-N-[4-(2-methyl-1H-indol-3-yl)thiazol-2-yl]acetamide], on human TET2 construct, the Kd turned out to be 14 µM. The compound also had an EC50 with HL60 cell line of 1.4 µM.

Regarding `Cc1[nH]c2ccccc2c1-c1csc(NC(=O)Cc2cc(Br)cs2)n1` [Example 19, 2-(4-bromothiophen-2-yl)-N-[4-(2-methyl-1H-indol-3-yl)thiazol-2-yl]acetamide], the Kd at human TET2 construct was 1 µM. Besides, the EC50 with HL60 cell line was 0.809 µM.

Regarding `Cc1[nH]c2ccccc2c1-c1csc(NC(=O)Cc2c[nH]c3ccc(O)cc23)n1` [Example 21, 2-(5-hydroxy-1H-indol-3-yl)-N-[4-(2-methyl-1H-indol-3-yl)thiazol-2-yl]acetamide], on human TET2 construct, the Kd amounted to 7 µM. In addition, the EC50 is 12.9 µM with MCF7 (breast), 16.4 µM in the experiment on HCT116 (colon), 9.2 µM in the experiment with MDA-MB-468 (breast) and 0.063 µM with HL60 cell line.

These data come from patent publication US20240208998A1, “COMPOUNDS FOR USE IN THE TREATMENT OF HYPERPROLIFERATIVE DISORDERS” (FUNDACIÓ PRIVADA INSTITUT D'INVESTIGACIÓ ONCOLÓGICA DE VALL …, priority 2021, published 2024).
